We go through 7 compounds from patent publication US20130059879A1, “Small Molecule Inhibitors of PFKFB3 and Glycolytic Flux and Their Methods of Use as Anti-Cancer Therapeutics” (UNIVERSITY OF LOUISVILLE RESEARCH FOUNDATION, INC., priority 2010, published 2013).

Each structure is given as a SMILES string.

One series has as its target T1, PFKFB3 (Homo sapiens, UniProt Q16875).
T1 construct: GST
The series can be described thus: Inhibition of recombinant PFKFB3 kinase activity (ADP Glow assay). Type of series: biochemical. The note with it: 250 nM analog concentration; read-out: % Inhibition of PFKFB3 Enzymatic Activity. The protocol: PFKFB3 was prepared by expression in E. coli and purified by GST column and column chromatography. […] The recombinant protein was pure and active as determined by the results of a kinase activity assay commercially available (such as ADP Glow® assay, […]). The same assay was used to determine the inhibition of the protein and the results are shown in Table 5 below (IC50 values or percent inhibition at a fixed concentration). Results confirmed that the compounds of the invention have low nanomolar IC50 values, interacting with PFKFB3 and inhibiting its enzymatic activity.
For orientation: ADP-Glo turns the ADP formed in a reaction into a luminescent signal.

The test system of another series is Calu-6. The experiment in a line: Cancer cell proliferation, Alamar Blue assay, 72 hours. It counts as cell-based. The note with it: Homo sapiens, Calu-6. The protocol: (§1) The ability of the compounds described herein to kill or inhibit the proliferation of cancer cells was measured using either the MTT assay, or the Alamar Blue assay, or the Cell Titer Glow® assay using 48 or 72 hours exposure. […] The procedures are briefly described below. Cells of the desired tumor cell line were plated at 2×10^5 cells/ml in 96 well plates. Twice the indicated concentrations of the compounds of the invention were added to cells the following day in an equal volume of media. 72 hours later, cells were lysed and subjected to ATP determination using the CellTiter Glo-Luminescent Cell Viability Assay kit (Promega, Madison, Wis.). Experiments were done in triplicate. When using the MTT assay or the Alamar blue assay, the experimental conditions are essentially similar; at the end of the incubation period, 20 microliters of the MTT solution is added per well and the samples are incubated for an additional four hours, rinsed, and the absorbance at 570 nm measured. […] Table 2 lists the IC50 values for the compounds of the invention in several cell lines including Jurkat, Calu-6, NCI-H82, U937, HCT-116, and MDA-MB-231 cancer cell lines.
In general terms: Alamar Blue is a resazurin reagent that responds to reducing activity.

A further series has as its system HCT-116. The description is as above. Type of series: cell-based. The note with it: Homo sapiens, HCT-116. On the procedure: as §1
In another series the test system is Jurkat. The series is described as above. It counts as cell-based. The note with it: Homo sapiens, Jurkat. The protocol: as §1
A further series concerns MDA-MB-231. The description is as above. To be noted: Homo sapiens. It counts as cell-based. The protocol:
as §1

In a further series the test system is NCI-H82. Described as above. It counts as cell-based. The note with it: Homo sapiens, NCI-H82, read-out: IC50 NCl-H82. On the procedure: as §1
The test system of another series is U937. Described as above. It counts as cell-based. The note with it: Homo sapiens, U-937. On the procedure:
as §1

Series [1] in a line: Microsomal stability in human liver microsomes. It counts as in vitro ADME. On the procedure:
Microsomal stability in vitro in different biologic media (liver microsomes, S9 fraction, hepatocytes) and species is ascertained to evaluate the rate at which a compound undergoes metabolism in the experimental in vitro conditions. Results for some compounds of the invention after a 60 minutes incubation period in human liver microsomes are shown in the Table 6 below. […] Experimental conditions are briefly described here: the stability in human liver microsomes of several compounds was done over […] at 37° C. using pooled mixed gender human liver microsomes. These liver microsomes were prepared at 1.0 mg/ml of microsomal protein in a 100 mM potassium phosphate pH 7.4 buffer with 1 mM NADPH. The media was incubated at 37° C. with the compound in solution in DMSO. The concentration of the compound was followed by LC/MS-MS as a function of time. Samples were assayed at t=0, 15, 30, and 60 minutes. Testosterone was used as a positive control. The same experiment was performed with mouse, rat or dog liver microsomes instead of human liver microsomes.
In general terms: Liver microsomes are vesicles of endoplasmic reticulum, rich in cytochrome P450 enzymes.

[2] abbreviates: 60 min incubation, 1.0 mg/ml microsomal protein, 1 mM NADPH, 37° C.

T1 sequence (Q16875 whole entry, species assumed): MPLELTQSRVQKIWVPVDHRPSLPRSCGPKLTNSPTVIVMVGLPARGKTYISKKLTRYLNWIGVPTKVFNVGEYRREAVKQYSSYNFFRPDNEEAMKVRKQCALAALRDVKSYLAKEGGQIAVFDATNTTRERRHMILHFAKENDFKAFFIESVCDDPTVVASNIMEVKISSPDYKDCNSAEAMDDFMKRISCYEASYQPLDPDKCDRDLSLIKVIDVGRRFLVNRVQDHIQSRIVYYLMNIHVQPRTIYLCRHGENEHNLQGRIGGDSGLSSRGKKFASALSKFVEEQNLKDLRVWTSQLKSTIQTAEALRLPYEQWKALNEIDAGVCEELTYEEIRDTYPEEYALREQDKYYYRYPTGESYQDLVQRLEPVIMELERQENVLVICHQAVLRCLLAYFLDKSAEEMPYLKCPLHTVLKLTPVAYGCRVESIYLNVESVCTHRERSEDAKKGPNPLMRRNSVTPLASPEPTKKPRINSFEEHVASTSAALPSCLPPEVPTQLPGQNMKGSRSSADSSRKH

On to `O=C(c1ccc(O)cc1)c1cc2c(ccc3ccccc32)[nH]1` [ACT-PFK-100, (3H-Benzo[e]indol-2-yl)-(4-hydroxy-phenyl)-methanone], for which, at PFKFB3, the inhibition at 0.25 µM is 0%.
On to `O=C(c1ccnc(Cl)c1)c1cc2c(ccc3ccccc32)[nH]1` [ACT-PFK-105, (3H-benzo[e]indol-2-yl)-(2-chloro-pyridin-4-yl)-methanone], for which the IC50 with Calu-6 was determined as 0.14 µM; with HCT-116, 0.355 µM; in the series on Jurkat it was 0.115 µM; in the series on MDA-MB-231, 7.4 µM; with NCI-H82 it was 0.395 µM; in the series with U937, 0.07 µM. Moreover, the “HLM, Mean metabolized (%)” value was 0.0% in series [1] (0 min) and 51.4% in series [1] (setting [2]).
For the compound `O=C(c1ccccc1)c1cc2c3c(ccc2[nH]1)CCCC3` [ACT-PFK-107, Phenyl-(6,7,8,9-tetrahydro-3H-benzo[e]indol-2-yl)-methanone], the IC50 with Calu-6 was 7.25 µM; with HCT-116, more than 100 µM; in the series on Jurkat, 6.9 µM; in the series with MDA-MB-231, 11.7 µM; in the series on NCI-H82, 10.1 µM; in the series with U937, 2.85 µM. Further, the “HLM, Mean metabolized (%)” value in series [1] (0 min) amounted to 0.0%; in series [1] (setting [2]) it was 100.0%.
As to `O=C(O)c1ccc(C(=O)c2cc3c(ccc4ccccc43)[nH]2)cc1` [ACT-PFK-111, 4-(3H-Benzo[e]indole-2-carbonyl)-benzoic acid], the IC50 in the series with Calu-6 was 57.5 µM; in the series on HCT-116 it was 63.5 µM; in the series on Jurkat, more than 100 µM; with MDA-MB-231, more than 100 µM; in the series with NCI-H82, 40.2 µM; in the series with U937, 57.2 µM. Moreover, the inhibition at 0.25 µM at PFKFB3 was found to be 54.3%.
With `O=C(c1ccc(OCc2ccccc2)c(C(=O)O)c1)c1cc2c(ccc3ccccc32)[nH]1` [ACT-PFK-114, 5-(3H-Benzo[e]indole-2-carbonyl)-2-benzyloxy-benzoic acidmethanone], the 50% inhibitory concentration (IC50) in the series on Calu-6, in the series on HCT-116, with Jurkat, with MDA-MB-231, in the series on NCI-H82 and with U937 was more than 100 µM throughout.
As to `COc1cc(C(=O)c2cc3c(ccc4ccccc43)[nH]2)ccn1` [ACT-PFK-115, (3H-Benzo[e]indol-2-yl)-(2-methoxy-pyridin-4-yl)-methanone], the IC50 in the series with Calu-6 amounted to 2.18 µM; with HCT-116, 8.2 µM; with Jurkat, 4.55 µM; with MDA-MB-231 it was 0.62 µM; in the series with NCI-H82 it was 6.05 µM; in the series on U937, 1.07 µM. The “HLM, Mean metabolized (%)” value in series [1] (0 min) was 0.0%; in series [1] (setting [2]), 99.6%.
On to `Cc1ccc(C(=O)c2cc3c(ccc4ccccc43)[nH]2)cc1` [ACT-PFK-123, (3H-Benzo[e]indol-2-yl)-p-tolyl-methanone], for which the concentration for half-maximal inhibition (IC50) with Calu-6 turned out to be 0.079 µM; in the series on Jurkat it was 0.1 µM; with NCI-H82 it was 0.315 µM. For the same compound, the inhibition at 0.25 µM on PFKFB3 came to 19.4%.

The inhibition is the relative decrease from the control value, in per cent. In general, IC50 refers to the concentration that gives 50% inhibition.
